Measured values from patent US5502035A, “N-terminus modified analogs of LHRH” (Tap Holdings Inc., priority 1994, dated 1996).
Non-standard residues stand in square brackets, D forms with d. Residues, ends and D or L forms follow the SMILES beside them. *: point of attachment. dPhe(4-Cl) = N[C@H](Cc1ccc(Cl)cc1)C(=O)O; d2Nal = N[C@H](Cc1ccc2ccccc2c1)C(=O)O; Lys(iPr) = CC(C)NCCCC[C@H](N)C(=O)O; NMeY = CN[C@@H](Cc1ccc(O)cc1)C(=O)O; d3Pal = N[C@H](Cc1cccnc1)C(=O)O; Nicotinoyl = O=C(c1cccnc1)*; X1 = O=C([C@@H]1CCCO1)*; GABA = NCCCC(=O)O; Sar = CNCC(=O)O

Target: T1, LHRH (Rattus norvegicus, UniProt P30969)
T1 construct: endogenous in cells; host or cells: rat pituitary cells (own knowledge of the cited Haviv 1989 method)
T1 sequence (P30969 1-327): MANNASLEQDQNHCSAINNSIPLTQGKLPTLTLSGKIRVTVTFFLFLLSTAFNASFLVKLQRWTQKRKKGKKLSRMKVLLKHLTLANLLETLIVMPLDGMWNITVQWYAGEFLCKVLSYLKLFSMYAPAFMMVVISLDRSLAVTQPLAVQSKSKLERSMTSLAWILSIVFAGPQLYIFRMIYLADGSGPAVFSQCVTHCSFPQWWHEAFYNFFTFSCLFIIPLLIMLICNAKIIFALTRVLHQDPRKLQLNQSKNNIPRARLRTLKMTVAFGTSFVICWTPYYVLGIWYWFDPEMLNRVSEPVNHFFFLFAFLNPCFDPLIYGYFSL
Assay: in vitro test for LHRH antagonist potency (pA2)
Format: cell-based
Conditions: negative logarithm of the antagonist concentration required to shift the response curve produced by the agonist leuprolide to two-fold higher concentration
Outline: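 Rat LHRH receptor in vitro functional test; pA2 = negative log of the antagonist concentration shifting the leuprolide agonist response curve to two-fold higher concentration.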

SMILES	Kb [nM]
CC(C)C[C@H](NC(=O)[C@@H](CCCCNC(=O)c1cccnc1)NC(=O)[C@H](Cc1ccc(O)cc1)N(C)C(=O)[C@H](CO)NC(=O)[C@@H](Cc1cccnc1)NC(=O)[C@@H](Cc1ccc(Cl)cc1)NC(=O)[C@@H](Cc1ccc2ccccc2c1)NC(=O)CCCNC(=O)[C@@H]1CCCO1)C(=O)N[C@@H](CCCCNC(C)C)C(=O)N1CCC[C@H]1C(=O)N[C@H](C)C(N)=O [Example 97, N (S)-2-Tetrahydrofuroyl-Gaba-D2Nal-D4ClPhe-D3Pal-Ser-NMeTyr-DLys(Nic)-Leu-Lys(Isp)-Pro-DAlaNH2] ({X1-GABA}-[d2Nal][dPhe(4-Cl)][d3Pal]S[NMeY][dK](Nicotinoyl)L[Lys(iPr)]P[dA]-NH2)	0.0339
CC(C)C[C@H](NC(=O)[C@@H](CCCCNC(=O)c1cccnc1)NC(=O)[C@H](Cc1ccc(O)cc1)N(C)C(=O)[C@H](CO)NC(=O)[C@@H](Cc1cccnc1)NC(=O)[C@@H](Cc1ccc(Cl)cc1)NC(=O)[C@@H](Cc1ccc2ccccc2c1)NC(=O)CN(C)C(=O)[C@@H]1CCCO1)C(=O)N[C@@H](CCCCNC(C)C)C(=O)N1CCC[C@H]1C(=O)N[C@H](C)C(N)=O [Example 99, N (S)-2-Tetrahydrofuroyl-Sar-D2Nal-D4ClPhe-D3Pal-Ser-NMeTyr-DLys(Nic),Leu-Lys(Isp)-Pro-DAlaNH2] (X1-[Sar][d2Nal][dPhe(4-Cl)][d3Pal]S[NMeY][dK](Nicotinoyl)L[Lys(iPr)]P[dA]-NH2)	0.0117
CC(C)C[C@H](NC(=O)[C@@H](CCCCNC(=O)c1cccnc1)NC(=O)[C@H](Cc1ccc(O)cc1)N(C)C(=O)[C@H](CO)NC(=O)[C@@H](Cc1cccnc1)NC(=O)[C@@H](Cc1ccc(Cl)cc1)NC(=O)[C@@H](C)NC(=O)CNC(=O)[C@@H]1CCCO1)C(=O)N[C@@H](CCCCNC(C)C)C(=O)N1CCC[C@H]1C(=O)N[C@H](C)C(N)=O [Example 100, N (S)-2-Tetrahydrofuroyl-Gly-DAla-D4ClPhe-D3Pal-Ser-NMeTyr-DLys(Nic)-Leu-Lys(Isp)-Pro-DAlaNH2] (X1-G[dA][dPhe(4-Cl)][d3Pal]S[NMeY][dK](Nicotinoyl)L[Lys(iPr)]P[dA]-NH2)	21.9
CC(C)C[C@H](NC(=O)[C@@H](CCCCNC(=O)c1cccnc1)NC(=O)[C@H](Cc1ccc(O)cc1)N(C)C(=O)[C@H](CO)NC(=O)[C@@H](Cc1cccnc1)NC(=O)[C@@H](Cc1ccc(Cl)cc1)NC(=O)CN(C)C(=O)CNC(=O)[C@@H]1CCCO1)C(=O)N[C@@H](CCCCNC(C)C)C(=O)N1CCC[C@H]1C(=O)N[C@H](C)C(N)=O [Example 101, N (S)-2-Tetrahydrofuroyl-Gly-Sar-D4ClPhe-D3Pal-Ser-NMeTyr-DLys(Nic)-Leu-Lys(Isp)-Pro-DAlaNH2] (X1-G[Sar][dPhe(4-Cl)][d3Pal]S[NMeY][dK](Nicotinoyl)L[Lys(iPr)]P[dA]-NH2)	42.7
